Measured values published in patent publication US5451599A, “Complex salts of hematoporphyrin and of its derivatives, their synthesis, and therapeutic agent” (Wojskowa Akademia Techniczna im. Jaroslawa Dabrowskiego, priority 1991, dated 1995).

Tests used:
[1] = tested on: HEp-2 (larynx cancer cells); assay: 48 h incubation with the salts: cell fluorescence, living cells, multiplication coefficient (Table 3); type: cell-based, Human; details: 48 hs, 50 mcg/ml
Description: (§1) New compounds of formula 1 were tested on cell lines. Use was made of 9 different neoplastic cell lines which were incubated for 48 hs with various new salts of protoporphyrin and with a new salt of the conventionally applied HpD preparation/hematoporphyrin derivatives/obtained according to Lipson et al. All compounds were used in the form of aqueous solutions, at a concentration of 50 mcg/ml. Determination was made of:
(§2) 1/ Cell fluorescence /F/: after 48 hs incubation, the cells were washed away, the intensity of fluorescence was measured in a fluorescence microscope and was expressed on an arbitrary scale of 0-4 scores;
(§3) 2/ Percentage of living cells /P %/ after 48 hs incubation;
(§4) 3/ Cell multiplication coefficient /M/ in the presence of different preparations, expressed as: [formula]
Hep-2 larynx cancer cells

[2] = tested on: GR (GRMT/F6, mammary gland cancer cells of GR-strain mice); assay: 48 h incubation with the salts: cell fluorescence, living cells, multiplication coefficient (Table 2); type: cell-based, Murine; details: 48 hs, 50 mcg/ml
Description: as §1, §2, §3, §4
GRMT/F6 mammary gland cancer cells of GR-strain mice

[3] = tested on: T-47D (breast cancer cells); assay: 48 h incubation with the salts: cell fluorescence, living cells, multiplication coefficient (Table 3); type: cell-based, Human; details: 48 hs, 50 mcg/ml
Description: as §1, §2, §3, §4
T-47D breast cancer cells

PZ = assay: 48 h incubation with the salts: cell fluorescence, living cells, multiplication coefficient (Table 1); type: cell-based; details: 48 hs, 50 mcg/ml
Description: as §1, §2, §3, §4

[4] = tested on: MA-104 (Rhesus monkey embryo kidney cancer cells); assay: as above; type: cell-based; details: 48 hs, 50 mcg/ml
Description: as §1, §2, §3, §4

CL = assay: as above; type: cell-based; details: 48 hs, 50 mcg/ml
Description: as §1, §2, §3, §4

[5] = tested on: KB (oral cavity cancer cells); assay: 48 h incubation with the salts: cell fluorescence, living cells, multiplication coefficient (Table 2); type: cell-based, Human; details: 48 hs, 50 mcg/ml
Description: as §1, §2, §3, §4
KB oral cavity cancer cells

[6] = tested on: Hela (cervix uteri cancer cells); assay: 48 h incubation with the salts: cell fluorescence, living cells, multiplication coefficient (Table 1); type: cell-based, Human; details: 48 hs, 50 mcg/ml
Description: as §1, §2, §3, §4

[7] = tested on: HBT-39/w (breast cancer cells); assay: 48 h incubation with the salts: cell fluorescence, living cells, multiplication coefficient (Table 2); type: cell-based, Human; details: 48 hs, 50 mcg/ml
Description: as §1, §2, §3, §4

[8] = tested on: Mm (Mm5MT/C1, mammary gland cancer cells of C3H-strain mice); assay: 48 h incubation with the salts: cell fluorescence, living cells, multiplication coefficient (Table 3); type: cell-based, Murine; details: for Cell fluorescence /F/ / Cell multiplication coefficient /M/ / Percentage of living cells /P %/: Mm, 48 hs, 50 mcg/ml
Description: as §1, §2, §3, §4
mammary gland cancer cells of C3H-strain mice

## CC1=C(CCC(=O)O)c2cc3[nH]c(cc4nc(cc5[nH]c(cc1n2)c(C(C)NC(C)C(=O)O)c5C)C(C(C)NC(C)C(=O)O)=C4C)c(C)c3CCC(=O)O.N=C(N)NCCC[C@H](N)C(=O)O.N=C(N)NCCC[C@H](N)C(=O)O (stereo not drawn) [PP/Ala/2 /Arg/2, l-arginine di/N-alanyl/-protoporphyrinate]
[1]
  Cell fluorescence /F/: ++
  Cell multiplication coefficient /M/: 0,21
  Percentage of living cells /P %/: 21%
[2]
  Cell fluorescence /F/: +
  Cell multiplication coefficient /M/: 0,50
  Percentage of living cells /P %/: 50%
[3]
  Cell fluorescence /F/: +++
  Cell multiplication coefficient /M/: 0,82
  Percentage of living cells /P %/: 85%
PZ
  Cell fluorescence /F/: ++
  Cell multiplication coefficient /M/: 0,15
  Percentage of living cells /P %/: 15%
[4]
  Cell fluorescence /F/: ++
  Cell multiplication coefficient /M/: 0,50
  Percentage of living cells /P %/: 50%
CL
  Cell fluorescence /F/: -
  Cell multiplication coefficient /M/: 0,30
  Percentage of living cells /P %/: 30%
[5]
  Cell fluorescence /F/: +++
  Cell multiplication coefficient /M/: 0
  Percentage of living cells /P %/: 0%
[6]
  Cell fluorescence /F/: +
  Cell multiplication coefficient /M/: 0,11
  Percentage of living cells /P %/: 11%
[7]
  Cell fluorescence /F/: ++
  Cell multiplication coefficient /M/: 0,33
  Percentage of living cells /P %/: 17%
[8]
  Cell fluorescence /F/: +++
  Cell multiplication coefficient /M/: 0,84
  Percentage of living cells /P %/: 86%

## CC1=C(CCC(=O)O)c2cc3[nH]c(cc4nc(cc5[nH]c(cc1n2)c(C(C)NC(CC(=O)O)C(=O)O)c5C)C(C(C)NC(CC(=O)O)C(=O)O)=C4C)c(C)c3CCC(=O)O.N=C(N)NCCC[C@H](N)C(=O)O.N=C(N)NCCC[C@H](N)C(=O)O (stereo not drawn) [PP/Asp/2 /Arg/2, l-arginine di/N-aspartyl/-protoporphyrinate]
[1]
  Cell fluorescence /F/: ++++
  Cell multiplication coefficient /M/: 0,40
  Percentage of living cells /P %/: 47%
[2]
  Cell fluorescence /F/: ++
  Cell multiplication coefficient /M/: 0,73
  Percentage of living cells /P %/: 25%
[3]
  Cell fluorescence /F/: ++++
  Cell multiplication coefficient /M/: 0,92
  Percentage of living cells /P %/: 65%
PZ
  Cell fluorescence /F/: +
  Cell multiplication coefficient /M/: 0,15
  Percentage of living cells /P %/: 14%
[4]
  Cell fluorescence /F/: +++
  Cell multiplication coefficient /M/: 0,52
  Percentage of living cells /P %/: 17%
CL
  Cell fluorescence /F/: +
  Cell multiplication coefficient /M/: 0,55
  Percentage of living cells /P %/: 55%
[5]
  Cell fluorescence /F/: ++
  Cell multiplication coefficient /M/: 0,12
  Percentage of living cells /P %/: 16%
[6]
  Cell fluorescence /F/: +++
  Cell multiplication coefficient /M/: 0,50
  Percentage of living cells /P %/: 38%
[7]
  Cell fluorescence /F/: +++
  Cell multiplication coefficient /M/: 0,81
  Percentage of living cells /P %/: 48%
[8]
  Cell fluorescence /F/: +++
  Cell multiplication coefficient /M/: 0,92
  Percentage of living cells /P %/: 70%

## CC1=C(CCC(=O)O)c2cc3[nH]c(cc4nc(cc5[nH]c(cc1n2)c(C(C)NC(CS)C(=O)O)c5C)C(C(C)NC(CS)C(=O)O)=C4C)c(C)c3CCC(=O)O.N=C(N)NCCC[C@H](N)C(=O)O.N=C(N)NCCC[C@H](N)C(=O)O (stereo not drawn) [PP/Cys/2 /Arg/2, l-arginine di/N-cysteyl/-protoporphyrinate]
[1]
  Cell fluorescence /F/: ++++
  Cell multiplication coefficient /M/: 0,32
  Percentage of living cells /P %/: 60%
[2]
  Cell fluorescence /F/: +++
  Cell multiplication coefficient /M/: 0,75
  Percentage of living cells /P %/: 50%
[3]
  Cell fluorescence /F/: +
  Cell multiplication coefficient /M/: 0,84
  Percentage of living cells /P %/: 26%
PZ
  Cell fluorescence /F/: +
  Cell multiplication coefficient /M/: 0,40
  Percentage of living cells /P %/: 40%
[4]
  Cell fluorescence /F/: ++
  Cell multiplication coefficient /M/: 0,16
  Percentage of living cells /P %/: 11%
CL
  Cell fluorescence /F/: -
  Cell multiplication coefficient /M/: 0,30
  Percentage of living cells /P %/: 30%
[5]
  Cell fluorescence /F/: +
  Cell multiplication coefficient /M/: 0,12
  Percentage of living cells /P %/: 12%
[6]
  Cell fluorescence /F/: ++
  Cell multiplication coefficient /M/: 0,43
  Percentage of living cells /P %/: 55%
[7]
  Cell fluorescence /F/: +
  Cell multiplication coefficient /M/: 0,53
  Percentage of living cells /P %/: 42%
[8]
  Cell fluorescence /F/: +++
  Cell multiplication coefficient /M/: 0,73
  Percentage of living cells /P %/: 40%

## CC1=C(CCC(=O)O)c2cc3[nH]c(cc4nc(cc5[nH]c(cc1n2)c(C(C)NC(Cc1ccccc1)C(=O)O)c5C)C(C(C)NC(Cc1ccccc1)C(=O)O)=C4C)c(C)c3CCC(=O)O.N=C(N)NCCC[C@H](N)C(=O)O.N=C(N)NCCC[C@H](N)C(=O)O (stereo not drawn) [PP/Fen/2 /Arg/2, l-arginine di/N-phenylalanyl/protoporphyrinate]
[1]
  Cell fluorescence /F/: ++
  Cell multiplication coefficient /M/: 0,08
  Percentage of living cells /P %/: 3%
[2]
  Cell fluorescence /F/: +++
  Cell multiplication coefficient /M/: 0
  Percentage of living cells /P %/: 0%
[3]
  Cell fluorescence /F/: +
  Cell multiplication coefficient /M/: 0,60
  Percentage of living cells /P %/: 60%
PZ
  Cell fluorescence /F/: +
  Cell multiplication coefficient /M/: 0,08
  Percentage of living cells /P %/: 8%
[4]
  Cell fluorescence /F/: ++
  Cell multiplication coefficient /M/: 0,35
  Percentage of living cells /P %/: 35%
CL
  Cell fluorescence /F/: ++
  Cell multiplication coefficient /M/: 0
  Percentage of living cells /P %/: 0%
[5]
  Cell fluorescence /F/: ++
  Cell multiplication coefficient /M/: 0,12
  Percentage of living cells /P %/: 12%
[6]
  Cell fluorescence /F/: +++
  Cell multiplication coefficient /M/: 0,14
  Percentage of living cells /P %/: 5%
[7]
  Cell fluorescence /F/: ++++
  Cell multiplication coefficient /M/: 0,11
  Percentage of living cells /P %/: 11%
[8]
  Cell fluorescence /F/: ++++
  Cell multiplication coefficient /M/: 0,37
  Percentage of living cells /P %/: 12%

## CC1=C(CCC(=O)O)c2cc3[nH]c(cc4nc(cc5[nH]c(cc1n2)c(C(C)NC(CCC(=O)O)C(=O)O)c5C)C(C(C)NC(CCC(=O)O)C(=O)O)=C4C)c(C)c3CCC(=O)O.N=C(N)NCCC[C@H](N)C(=O)O.N=C(N)NCCC[C@H](N)C(=O)O (stereo not drawn) [PP/Glu/2 /Arg/2, l-arginine di/N-glutamyl/-protoporphyrinate]
[1]
  Cell fluorescence /F/: ++++
  Cell multiplication coefficient /M/: 0,08
  Percentage of living cells /P %/: 15%
[2]
  Cell fluorescence /F/: +
  Cell multiplication coefficient /M/: 0,75
  Percentage of living cells /P %/: 75%
[3]
  Cell fluorescence /F/: +++
  Cell multiplication coefficient /M/: 0,80
  Percentage of living cells /P %/: 49%
PZ
  Cell fluorescence /F/: +
  Cell multiplication coefficient /M/: 0,15
  Percentage of living cells /P %/: 15%
[4]
  Cell fluorescence /F/: -
  Cell multiplication coefficient /M/: 0,16
  Percentage of living cells /P %/: 15%
CL
  Cell fluorescence /F/: -
  Cell multiplication coefficient /M/: 0,45
  Percentage of living cells /P %/: 45%
[5]
  Cell fluorescence /F/: ++++
  Cell multiplication coefficient /M/: 0,08
  Percentage of living cells /P %/: 8%
[6]
  Cell fluorescence /F/: ++
  Cell multiplication coefficient /M/: 0,16
  Percentage of living cells /P %/: 33%
[7]
  Cell fluorescence /F/: +
  Cell multiplication coefficient /M/: 0,73
  Percentage of living cells /P %/: 66%
[8]
  Cell fluorescence /F/: +++
  Cell multiplication coefficient /M/: 0,70
  Percentage of living cells /P %/: 76%
[8]; mammary gland cancer of C3H mice
  activity in studies of the Mm5MT/C1 cell line (in words): least effective against this type of neoplasm

## CSCCC(NC(C)C1=C(C)c2cc3[nH]c(cc4nc(cc5[nH]c(cc1n2)c(C)c5C(C)NC(CCSC)C(=O)O)C(C)=C4CCC(=O)O)c(CCC(=O)O)c3C)C(=O)O.N=C(N)NCCC[C@H](N)C(=O)O.N=C(N)NCCC[C@H](N)C(=O)O (stereo not drawn) [PP/Met/2 /Arg/2, l-arginine di/N-methionyl/-protoporphyrinate]
[1]
  Cell fluorescence /F/: +++
  Cell multiplication coefficient /M/: 0
  Percentage of living cells /P %/: 0%
[2]
  Cell fluorescence /F/: ++++
  Cell multiplication coefficient /M/: 0,22
  Percentage of living cells /P %/: 25%
[3]
  Cell fluorescence /F/: +++
  Cell multiplication coefficient /M/: 0,10
  Percentage of living cells /P %/: 10%
PZ
  Cell fluorescence /F/: +
  Cell multiplication coefficient /M/: 0,08
  Percentage of living cells /P %/: 8%
[4]
  Cell fluorescence /F/: ++
  Cell multiplication coefficient /M/: 0,33
  Percentage of living cells /P %/: 22%
CL
  Cell fluorescence /F/: +
  Cell multiplication coefficient /M/: 0
  Percentage of living cells /P %/: 0%
[5]
  Cell fluorescence /F/: ++
  Cell multiplication coefficient /M/: 0,12
  Percentage of living cells /P %/: 5%
[6]
  Cell fluorescence /F/: ++++
  Cell multiplication coefficient /M/: 0,05
  Percentage of living cells /P %/: 5%
[7]
  Cell fluorescence /F/: ++++
  Cell multiplication coefficient /M/: 0,08
  Percentage of living cells /P %/: 8%
[8]
  Cell fluorescence /F/: ++++
  Cell multiplication coefficient /M/: 0,08
  Percentage of living cells /P %/: 8%
